From publication PMC10586084 (Journal of Enzyme Inhibition and Medicinal Chemistry, 2023)

Columns and labels:
[1] = system: HD-MB03 and DAOY medulloblastoma cell lines; experiment: cell proliferation analysis; format: cell-based, human; settings: CDDP concentration used for combination (cis-Pt 1.8 µM), 72 h
[2] = target: hCA IV (Homo sapiens, UniProt P22748); experiment: stopped-flow CO2 hydrase assay, hCA IV; format: biochemical; settings: stopped flow technique, mean from three assays
[3] = target: hCA I (Homo sapiens, UniProt P00915); experiment: stopped-flow CO2 hydrase assay, hCA I; format: biochemical; settings: stopped flow technique, mean from three assays
[4] = target: hCA XII (Homo sapiens, UniProt O43570); experiment: stopped-flow CO2 hydrase assay, hCA XII; format: biochemical; settings: for Ki: KI hCA XII, stopped flow technique, mean from three assays; for Selectivity index I/XII: ratio KI hCA I / KI hCA XII; for Selectivity index II/XII: ratio KI hCA II / KI hCA XII; for Selectivity index IV/XII: ratio KI hCA IV / KI hCA XII
[5] = target: hCA IX (Homo sapiens, UniProt Q16790); experiment: biochemical; format: biochemical; settings: for Ki: KI hCA IX, stopped flow technique, mean from three assays; for Selectivity index I/IX: ratio KI hCA I / KI hCA IX; for Selectivity index II/IX: ratio KI hCA II / KI hCA IX; for Selectivity index IV/IX: ratio KI hCA IV / KI hCA IX
[6] = target: hCA II (Homo sapiens, UniProt P00918); experiment: stopped-flow CO2 hydrase assay, hCA II; format: biochemical; settings: stopped flow technique, mean from three assays

hCA IV, sequence (P22748 19-284 limits assumed): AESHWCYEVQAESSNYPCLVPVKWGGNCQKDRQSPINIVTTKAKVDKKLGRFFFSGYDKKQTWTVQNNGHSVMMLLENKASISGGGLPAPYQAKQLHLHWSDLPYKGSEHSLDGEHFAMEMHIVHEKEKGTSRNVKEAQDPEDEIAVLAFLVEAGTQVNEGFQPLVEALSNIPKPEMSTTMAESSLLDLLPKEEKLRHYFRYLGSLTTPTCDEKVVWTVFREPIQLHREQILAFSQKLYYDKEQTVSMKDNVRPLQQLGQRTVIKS
hCA I, sequence (P00915 whole entry): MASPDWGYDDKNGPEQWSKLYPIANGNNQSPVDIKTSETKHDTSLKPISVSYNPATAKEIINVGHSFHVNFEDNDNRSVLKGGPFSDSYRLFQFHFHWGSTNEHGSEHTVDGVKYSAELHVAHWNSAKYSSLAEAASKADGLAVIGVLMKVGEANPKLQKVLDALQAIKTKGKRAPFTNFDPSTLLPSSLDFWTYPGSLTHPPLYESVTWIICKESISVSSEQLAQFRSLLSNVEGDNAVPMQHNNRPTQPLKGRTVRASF
hCA XII, sequence (O43570 25-354): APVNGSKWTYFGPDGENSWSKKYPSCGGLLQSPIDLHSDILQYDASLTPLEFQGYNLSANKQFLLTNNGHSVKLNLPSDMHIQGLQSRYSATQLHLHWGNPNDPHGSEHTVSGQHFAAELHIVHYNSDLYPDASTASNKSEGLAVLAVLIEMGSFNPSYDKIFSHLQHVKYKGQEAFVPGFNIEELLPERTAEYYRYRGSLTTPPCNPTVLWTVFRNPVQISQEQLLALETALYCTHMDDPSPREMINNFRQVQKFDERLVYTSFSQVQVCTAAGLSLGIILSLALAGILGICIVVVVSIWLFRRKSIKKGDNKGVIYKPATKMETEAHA

Structure (SMILES) | viability reduction by CDDP alone [1] | Ki [2] [nM] | Ki [3] [nM] | Ki [4] [nM] | Selectivity index I/XII [4] | Selectivity index II/XII [4] | Selectivity index IV/XII [4] | Ki [5] [nM] | Selectivity index I/IX [5] | Selectivity index II/IX [5] | Selectivity index IV/IX [5] | Ki [6] [nM]
[NH2][Pt]([NH2])([Cl])[Cl] [CDDP, cisplatin, reference compound] | around 50% | – | – | – | – | – | – | – | – | – | – | –
NS(=O)(=O)c1ccc(Nc2nc3nccc(-c4ccccc4)n3n2)cc1 [Compound 1a, 4-((7-Phenyl-[1,2,4]triazolo[1,5-a]pyrimidin-2-yl)amino)benzenesulfonamide] | – | 1330 | 841 | 71.7 | 11.7 | 1.0 | 18.5 | 33.2 | 25.3 | 2.3 | 39.9 | 75.3
NS(=O)(=O)c1ccc(Nc2nc3nccc(-c4ccccc4F)n3n2)cc1 [Compound 1h, 4-((7-(2-Fluorophenyl)-[1,2,4]triazolo[1,5-a]pyrimidin-2-yl)amino)benzenesulfonamide] | – | 920 | 682 | 25.8 | 26.4 | 1.4 | 35.7 | 19.5 | 35.0 | 1.8 | 47.2 | 35.9
Cc1cccc(-c2ccnc3nc(Nc4ccc(S(N)(=O)=O)cc4)nn23)c1 [Compound 1u, 4-((7-(m-Tolyl)-[1,2,4]triazolo[1,5-a]pyrimidin-2-yl)amino)benzenesulfonamide] | – | 4850 | 1400 | 70.2 | 20.0 | 0.8 | 69.0 | 26.2 | 53.5 | 2.1 | 185 | 55.2
COc1ccc(-c2ccnc3nc(Nc4ccc(S(N)(=O)=O)cc4)nn23)cc1OC [Compound 1ab, 4-((7-(3,4-Dimethoxyphenyl)-[1,2,4]triazolo[1,5-a]pyrimidin-2-yl)amino)benzenesulfonamide] | – | 1520 | 993 | 9 | 110 | 10.6 | 169 | 35.8 | 27.7 | 2.6 | 42.4 | 95.2
NS(=O)(=O)c1ccc(Nc2nc3nccc(-c4cccc([N+](=O)[O-])c4)n3n2)cc1 [Compound 1r, 4-((7-(3-Nitrophenyl)-[1,2,4]triazolo[1,5-a]pyrimidin-2-yl)amino)benzenesulfonamide] | – | 690 | 3470 | 4.3 | 806 | 11.2 | 160 | 49.9 | 69.5 | 1.0 | 13.8 | 48
Cc1ccc(-c2ccnc3nc(Nc4ccc(S(N)(=O)=O)cc4)nn23)cc1 [Compound 1t, 4-((7-(p-Tolyl)-[1,2,4]triazolo[1,5-a]pyrimidin-2-yl)amino)benzenesulfonamide] | – | 2290 | 1470 | 61.2 | 24.0 | 1.0 | 37.4 | 41.5 | 35.5 | 1.5 | 55.1 | 64
NS(=O)(=O)c1ccc(Nc2nc3nccc(-c4ccc(Cl)cc4)n3n2)cc1 [Compound 1k, 4-((7-(4-Chlorophenyl)-[1,2,4]triazolo[1,5-a]pyrimidin-2-yl)amino)benzenesulfonamide] | – | 4000 | 2250 | 29.2 | 77.1 | 2.1 | 137 | 74.1 | 30.4 | 0.8 | 53.9 | 62.4
NS(=O)(=O)c1ccc(Nc2nc3nccc(-c4cccc(F)c4)n3n2)cc1 [Compound 1g, 4-((7-(3-Fluorophenyl)-[1,2,4]triazolo[1,5-a]pyrimidin-2-yl)amino)benzenesulfonamide] | – | 853 | 551 | 42.6 | 12.9 | 1.1 | 20.0 | 22.4 | 24.6 | 2.0 | 38.1 | 45.9
COc1ccc(-c2ccnc3nc(Nc4ccc(S(N)(=O)=O)cc4)nn23)cc1 [Compound 1w, 4-((7-(4-Methoxyphenyl)-[1,2,4]triazolo[1,5-a]pyrimidin-2-yl)amino)benzenesulfonamide] | – | 2000 | 1630 | 39.8 | 40.9 | 2.2 | 50.3 | 50.8 | 32.0 | 1.8 | 39.4 | 89.6
NS(=O)(=O)c1ccc(Nc2nc3nccc(-c4c(F)cccc4F)n3n2)cc1 [Compound 1i, 4-((7-(2,6-Difluorophenyl)-[1,2,4]triazolo[1,5-a]pyrimidin-2-yl)amino)benzenesulfonamide] | – | 703 | 743 | 22.5 | 33 | 0.8 | 31.2 | 21.9 | 33.9 | 0.8 | 32.1 | 17.6
NS(=O)(=O)c1ccc(Nc2nc3nccc(-c4ccccc4[N+](=O)[O-])n3n2)cc1 [Compound 1s, 4-((7-(2-Nitrophenyl)-[1,2,4]triazolo[1,5-a]pyrimidin-2-yl)amino)benzenesulfonamide] | – | 3980 | 8450 | 48.9 | 173 | 1.6 | 81.4 | 20.4 | 414 | 3.8 | 195 | 77.1
CCOc1ccc(-c2ccnc3nc(Nc4ccc(S(N)(=O)=O)cc4)nn23)cc1 [Compound 1z, 4-((7-(4-Ethoxyphenyl)-[1,2,4]triazolo[1,5-a]pyrimidin-2-yl)amino)benzenesulfonamide] | – | 3650 | 2260 | 55.2 | 40.9 | 1.2 | 66.1 | 43.5 | 51.9 | 1.6 | 83.9 | 69.3
